# Source: the supplement of paper PMC11208160
# Assay: recombinant barcode read abundance after kanamycin selection (control-corrected) (log10(CPM+1)); higher = more efficient recombination; sequences stand for … in AGTGCAGAGAAAATCGGCCAGTTTTCTCTGCCTGCAGTCCGCATGCCGT…ATTTATGCAGCGGACTGCCTTTCTCCCAAAGTGATAAACCGGACAGTATCATGGACCGGTTTTCCCGGTAATCCGTATTTGCAAGGTTGGTTTCACT; site = the 11-nt target
# How it was run: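 Recombination efficiency in this pooled E. coli screen uses counts per million of barcodes at recombinant junctions, averaged and corrected against the control. The reported form is log10(CPM+1). Two replicates were plated on chloramphenicol/ampicillin LB agar as control and two on chloramphenicol/ampicillin/kanamycin with 0.1 mM IPTG.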
row,Sequence,recombinant barcode read abundance (log10)
1,"CGAGCCCTCTGGGTTCTAACCTGTTGCTGAG [CGAGCCCCTCA_LTGcore_TC_RTGcore_CT] (site CGAGCCCCTCA) (LTG core: TC, RTG core: CT)",0.0668
2,"CGAGCCCTGTGGGTTCTAACCTGTTGCTGAG [CGAGCCCCTCA_LTGcore_TG_RTGcore_CT] (site CGAGCCCCTCA) (LTG core: TG, RTG core: CT)",0.134
3,"CGAGCCCTTTGGGTTCTAACCTGTTGCTGAA [CGAGCCCCTCA_LTGcore_TT_RTGcore_TT] (site CGAGCCCCTCA) (LTG core: TT, RTG core: TT)",0.0246
4,"CGCGCCCAATGGGTTCTAACCTGTTGCGGAG [CGCGCCCCTCC_LTGcore_AA_RTGcore_CT] (site CGCGCCCCTCC) (LTG core: AA, RTG core: CT)",0.173
5,"CGCGCCCCTTGGGTTCTAACCTGTTGCGGCT [CGCGCCCCTCC_LTGcore_CT_RTGcore_AG] (site CGCGCCCCTCC) (LTG core: CT, RTG core: AG)",0.0596
6,"CGCGCCCCTTGGGTTCTAACCTGTTGCGGGA [CGCGCCCCTCC_LTGcore_CT_RTGcore_TC] (site CGCGCCCCTCC) (LTG core: CT, RTG core: TC)",0.0431
7,"CGCGCCCCTTGGGTTCTAACCTGTTGCGGTG [CGCGCCCCTCC_LTGcore_CT_RTGcore_CA] (site CGCGCCCCTCC) (LTG core: CT, RTG core: CA)",0.382
8,"CGCGCCCTATGGGTTCTAACCTGTTGCGGTA [CGCGCCCCTCC_LTGcore_TA_RTGcore_TA] (site CGCGCCCCTCC) (LTG core: TA, RTG core: TA)",0.0456
9,"CGGTCCCAATGGGTTCTAACCTGTTGCCAAG [CGGTCCCCTTG_LTGcore_AA_RTGcore_CT] (site CGGTCCCCTTG) (LTG core: AA, RTG core: CT)",0.3
10,"CGGTCCCAATGGGTTCTAACCTGTTGCCATT [CGGTCCCCTTG_LTGcore_AA_RTGcore_AA] (site CGGTCCCCTTG) (LTG core: AA, RTG core: AA)",0.0857
11,"CGGTCCCACTGGGTTCTAACCTGTTGCCAAG [CGGTCCCCTTG_LTGcore_AC_RTGcore_CT] (site CGGTCCCCTTG) (LTG core: AC, RTG core: CT)",0.0364
12,"CGGTCCCATTGGGTTCTAACCTGTTGCCAAT [CGGTCCCCTTG_LTGcore_AT_RTGcore_AT] (site CGGTCCCCTTG) (LTG core: AT, RTG core: AT)",0.494
13,"CGGTCCCCATGGGTTCTAACCTGTTGCCAAG [CGGTCCCCTTG_LTGcore_CA_RTGcore_CT] (site CGGTCCCCTTG) (LTG core: CA, RTG core: CT)",0.51
14,"CGGTCCCCCTGGGTTCTAACCTGTTGCCAGG [CGGTCCCCTTG_LTGcore_CC_RTGcore_CC] (site CGGTCCCCTTG) (LTG core: CC, RTG core: CC)",0.0887
15,"CGGTCCCCGTGGGTTCTAACCTGTTGCCAAG [CGGTCCCCTTG_LTGcore_CG_RTGcore_CT] (site CGGTCCCCTTG) (LTG core: CG, RTG core: CT)",0.38
16,"CGGTCCCCTTGGGTTCTAACCTGTTGCCAGA [CGGTCCCCTTG_LTGcore_CT_RTGcore_TC] (site CGGTCCCCTTG) (LTG core: CT, RTG core: TC)",0.0215
17,"CGGTCCCCTTGGGTTCTAACCTGTTGCCAGG [CGGTCCCCTTG_LTGcore_CT_RTGcore_CC] (site CGGTCCCCTTG) (LTG core: CT, RTG core: CC)",0.129
18,"CGGTCCCCTTGGGTTCTAACCTGTTGCCAGT [CGGTCCCCTTG_LTGcore_CT_RTGcore_AC] (site CGGTCCCCTTG) (LTG core: CT, RTG core: AC)",0.258
19,"CGGTCCCGATGGGTTCTAACCTGTTGCCAAG [CGGTCCCCTTG_LTGcore_GA_RTGcore_CT] (site CGGTCCCCTTG) (LTG core: GA, RTG core: CT)",0.197
